Assay results published in patent publication US20130104445A1, “ESSENTIAL OILS AND THEIR COMPOUNDS AS STINK BUG REPELLENTS” (priority 2011, published 2013).

System: BMSB adult or nymph antenna
Assay: GC-EAD antennal responses to essential oil headspace (SPME) or synthetic SSB pheromone mixture
Parameters: species or system Halyomorpha halys
Method: Headspace volatiles from several essential oils (1 ml each in a closed 20 ml glass vial) were sampled via Solid-Phase Micro-Extraction (SPME) (CAR/PDMS, 85 μm, Supelco, Bellefonte, Pa.) for 30 sec before GC-EAD and GC-MS analyses.
BMSB nymphs and adults for electrophysiological study were taken from a lab colony originally collected from Pennsylvania, U.S.A., during the overwintering period.
SPME samples of the various essential oils were injected splitless into a Varian CP-3800 GC equipped with a polar column (HP-INNOWAX; 30 m×0.53 mm×1.0 μm film thickness; Agilent Technologies, Wilmington, Del., USA) and a 1:1 effluent splitter that allowed simultaneous flame ionization detection (FID) and electroantennographic detection (EAD) of BMSB adult or nymph antenna to the separated volatile compounds. Helium was used as the carrier gas, and the injector and detector temperatures were 250° C. and 300° C., respectively. Column temperature was 50° C. for 1 min, rising to 240° C. at 10° C./min, and then held for 10 min. The outlet for the EAD was held in a humidified air stream flowing at 0.5 m/sec over the antennal preparation. EAD recordings were made using silver wire-glass capillary electrodes filled with Beadle-Ephrussi Ringer on freshly cut antennae. The antennal signals were stored and analyzed on a PC equipped with a serial IDAC interface box and the program EAD ver. 2.5 (Syntech, Hilversum, The Netherlands). The same GC-EAD recording procedure was also employed on the BMSB antennae against a synthetic mixture of the Spined soldier bug aggregation pheromone components (trans-2-hexenal, benzyl alcohol, and α-terpineol; 200 ng/μl each in hexane, 2 μl injected).
Antennally active compounds (FID peaks) in the SPME samples of essential oils were identified by GC-MS on an HP 6890 GC series coupled with an HP 5973 Mass Selective Detector using the same type of GC column and conditions as described above. Compounds were identified by comparison of retention times with those of authentic standards and with mass spectra of standards.

[1] = from the lemongrass oil, FIG. 4
[2] = synthetic mixture of SSB aggregation pheromone components, FIG. 12

CC12CCC(CC1)C(C)(C)O2 [1,8-cineole]
EAD response of BMSB antennae (from rosemary oil, FIG. 8): significant (strongly or weakly) EAD-responses

COc1ccc(C)cc1 [4-methylanisole]
EAD response of BMSB antennae (from ylang ylang oil, FIG. 7): significant (strongly or weakly) EAD-responses

CCCCCC(=O)CCC [4-nonanone]
EAD response of BMSB antennae [1]: weakly

CC(C)=CCC/C(C)=C/C=O [E-citral]
EAD response of BMSB antennae [1]: strongly responded

CC(C)=CCC/C(C)=C\C=O [Z-citral]
EAD response of BMSB antennae [1]: strongly responded

CC(=O)OCc1ccccc1 [benzyl acetate]
EAD response of BMSB antennae (from ylang ylang oil, FIG. 7): significant (strongly or weakly) EAD-responses

OCc1ccccc1 [benzyl alcohol]
EAD response of BMSB antennae [2]: strong antennal responses

CC12CCC(CC1=O)C2(C)C (stereo not drawn) [camphor]
EAD response of BMSB antennae (from rosemary oil, FIG. 8): significant (strongly or weakly) EAD-responses

C=CCc1ccc(O)c(OC)c1 [eugenol]
EAD response of BMSB antennae (from clove oil, FIG. 6): significant (strongly or weakly) EAD-responses

CC(C)=CCC/C(C)=C/CO [geraniol]
EAD response of BMSB antennae (from geranium oil, FIG. 10): significant (strongly or weakly) EAD-responses

COC(=O)c1ccccc1 [methyl benzoate]
EAD response of BMSB antennae (from ylang ylang oil, FIG. 7): significant (strongly or weakly) EAD-responses

COC(=O)c1ccccc1O [methyl salicylate]
EAD response of BMSB antennae (from wintergreen oil, FIG. 9): significant (strongly or weakly) EAD-responses

CC(C)=C1CC[C@@H](C)CC1=O [pulegone]
EAD response of BMSB antennae (from pennyroyal oil, FIG. 11): significant (strongly or weakly) EAD-responses

CCC/C=C/C=O [trans-2-hexenal]
EAD response of BMSB antennae [2]: strong antennal responses

CC1=CCC(C(C)(C)O)CC1 (stereo not drawn) [α-terpineol]
EAD response of BMSB antennae [2]: weak activity

C=C1CC[C@@H]2[C@H]1[C@H]1[C@H](C(C)C)CC[C@]12C [β-bourbernene]
EAD response of BMSB antennae (from geranium oil, FIG. 10): significant (strongly or weakly) EAD-responses

CC(C)=CCCC(C)CCO (stereo not drawn) [β-citronellol]
EAD response of BMSB antennae (from geranium oil, FIG. 10): significant (strongly or weakly) EAD-responses

P/I-menthones
EAD response of BMSB antennae (from geranium oil, FIG. 10): significant (strongly or weakly) EAD-responses
EAD response of BMSB antennae (from pennyroyal oil, FIG. 11): significant (strongly or weakly) EAD-responses

cis/trans-rose oxides
EAD response of BMSB antennae (from geranium oil, FIG. 10): significant (strongly or weakly) EAD-responses

l-carvone
EAD response of BMSB antennae (from spearmint oil, FIG. 5): significant (strongly or weakly) EAD-responses
